Laboratory results taken from patent US20130345418A1, “PROCESS FOR PURIFICATION OF APREPITANT” (HETERO DRUGS LIMITED, priority 2006, published 2013).
Where two headings read alike, the source gives them in different places.

Legend:
[1] = mean particle size of aprepitant; format: physicochemical; conditions: crystallized from ethyl acetate (Example 1)
[2] = aprepitant produced by the processes described in the prior art; cited from earlier work
[3] = dissolution rate of amorphous versus crystalline aprepitant; format: physicochemical; conditions: compared with the known crystalline aprepitant

| mean particle size [1] [microns] | Structure (SMILES) | mean particle size [2] | dissolution rate [3] |
| --- | --- | --- | --- |
| 4.95 | C[C@@H](O[C@H]1OCCN(Cc2n[nH]c(=O)[nH]2)[C@H]1c1ccc(F)cc1)c1cc(C(F)(F)F)cc(C(F)(F)F)c1 [aprepitant, 5-[[(2R,3S)-2-[(1R)-1-[3,5-bis(trifluoromethyl)phenyl]ethoxy]-3-(4-fluorophenyl)-4-morpholinyl]methyl]-1,2-dihydro-3H-1,2,4-triazol-3-one] | about 12 microns |  |
|  | C[C@@H](O[C@H]1OCCN(Cc2n[nH]c(=O)[nH]2)[C@H]1c1ccc(F)cc1)c1cc(C(F)(F)F)cc(C(F)(F)F)c1 [amorphous aprepitant, 5-[[(2R,3S)-2-[(1R)-1-[3,5-bis(trifluoromethyl)phenyl]ethoxy]-3-(4-fluorophenyl)-4-morpholinyl]methyl]-1,2-dihydro-3H-1,2,4-triazol-3-one] |  | better dissolution rate than the known crystalline aprepitant |
